From the supplement of paper PMC10307832

Key:
Assay in all cases: relative viability (nuclei count vs DMSO), 5 days (fraction); higher = more cells survive
BI-D1870 + Palbociclib = compound: CC(C)CCN1c2nc(Nc3cc(F)c(O)c(F)c3)ncc2N(C)C(=O)C1C [BI-D1870] + CC(=O)c1c(C)c2cnc(Nc3ccc(N4CCNCC4)cn3)nc2n(C2CCCC2)c1=O [Palbociclib] (partner 0.5 µM)
Method in brief: (§1)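 For relative viability, nuclei counts in treated wells were divided by those in vehicle wells. Lung cancer cell lines had been pin-tool dosed in 1536-well plates the day after seeding and cultured for 5 days, then fixed and stained in one step (final 0.05% Triton X-100, 1% formaldehyde, 1 ug/ml Hoechst) and imaged at 4×. Doses were one drug alone or a fixed anchor-drug dose plus five library-drug doses (not always all listed) in √10 steps, and values are duplicate-plate medians.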

BI-D1870 + Trametinib = compound: CC(C)CCN1c2nc(Nc3cc(F)c(O)c(F)c3)ncc2N(C)C(=O)C1C [BI-D1870] + CC(=O)Nc1cccc(-n2c(=O)n(C3CC3)c(=O)c3c(Nc4ccc(I)cc4F)n(C)c(=O)c(C)c32)c1 [Trametinib] (partner 0.02 µM)
Method in brief: as §1

BI-D1870 + Linsitinib = compound: CC(C)CCN1c2nc(Nc3cc(F)c(O)c(F)c3)ncc2N(C)C(=O)C1C [BI-D1870] + C[C@]1(O)C[C@@H](c2nc(-c3ccc4ccc(-c5ccccc5)nc4c3)c3c(N)nccn32)C1 [Linsitinib] (partner 1 µM)
Method in brief: as §1

BI-D1870 + Navitoclax = compound: CC(C)CCN1c2nc(Nc3cc(F)c(O)c(F)c3)ncc2N(C)C(=O)C1C [BI-D1870] + CC1(C)CCC(c2ccc(Cl)cc2)=C(CN2CCN(c3ccc(C(=O)NS(=O)(=O)c4ccc(N[C@H](CCN5CCOCC5)CSc5ccccc5)c(S(=O)(=O)C(F)(F)F)c4)cc3)CC2)C1 [Navitoclax] (partner 0.5 µM)
Method in brief: as §1

| Cell Line | relative viability (BI-D1870 + Palbociclib; first compound 0.04 µM) | relative viability (BI-D1870 + Palbociclib; first compound 0.1265 µM) | relative viability (BI-D1870 + Palbociclib; first compound 0.4 µM) | relative viability (BI-D1870 + Palbociclib; first compound 1.265 µM) | relative viability (BI-D1870 + Palbociclib; first compound 4 µM) | relative viability (BI-D1870 + Trametinib; first compound 0.04 µM) | relative viability (BI-D1870 + Trametinib; first compound 0.1265 µM) | relative viability (BI-D1870 + Trametinib; first compound 0.4 µM) | relative viability (BI-D1870 + Trametinib; first compound 1.265 µM) | relative viability (BI-D1870 + Trametinib; first compound 4 µM) | relative viability (BI-D1870 + Linsitinib; first compound 0.04 µM) | relative viability (BI-D1870 + Linsitinib; first compound 0.1265 µM) | relative viability (BI-D1870 + Linsitinib; first compound 0.4 µM) | relative viability (BI-D1870 + Linsitinib; first compound 1.265 µM) | relative viability (BI-D1870 + Linsitinib; first compound 4 µM) | relative viability (BI-D1870 + Navitoclax; first compound 0.04 µM) | relative viability (BI-D1870 + Navitoclax; first compound 0.1265 µM) | relative viability (BI-D1870 + Navitoclax; first compound 0.4 µM) | relative viability (BI-D1870 + Navitoclax; first compound 1.265 µM) | relative viability (BI-D1870 + Navitoclax; first compound 4 µM) |
| --- | --- | --- | --- | --- | --- | --- | --- | --- | --- | --- | --- | --- | --- | --- | --- | --- | --- | --- | --- | --- |
| NCI-H2087 | 0.239 | 0.2 | 0.265 | 0.196 | 0.208 | 0.2 | 0.158 | 0.189 | 0.246 | 0.199 | 1.09 | 1.02 | 1.17 | 1.01 | 0.699 | 1.14 | 1.01 | 1.06 | 1.09 | 0.802 |
| NCI-H2126 | 0.369 | 0.4 | 0.38 | 0.33 | 0.357 | 0.557 | 0.598 | 0.564 | 0.546 | 0.539 | 0.724 | 0.712 | 0.694 | 0.73 | 0.677 | 0.876 | 0.829 | 0.853 | 0.904 | 0.771 |
| NCI-H2228 | 0.97 | 0.771 | 0.688 | 0.713 | 0.627 | 0.54 | 0.367 | 0.362 | 0.56 | 0.223 | 0.78 | 0.568 | 0.953 | 0.529 | 0.388 | 0.94 | 0.811 | 0.819 | 0.823 | 0.359 |
| NCI-H2347 | 0.385 | 0.426 | 0.407 | 0.453 | 0.4 | 0.302 | 0.26 | 0.273 | 0.296 | 0.322 | 1.07 | 0.965 | 0.962 | 1.03 | 0.899 | 0.778 | 0.914 | 0.617 | 0.975 | 0.54 |
| NCI-H2405 | 0.58 | 0.525 | 0.523 | 0.565 | 0.49 | 0.683 | 0.595 | 0.586 | 0.67 | 0.601 | 1.07 | 0.839 | 0.901 | 1.06 | 0.909 | 1.17 | 0.774 | 0.977 | 0.844 | 0.671 |
| NCI-H3122 | 0.187 | 0.176 | 0.211 | 0.267 | 0.216 | 0.234 | 0.202 | 0.234 | 0.25 | 0.279 | 1.06 | 0.925 | 0.988 | 0.974 | 1.02 | 1 | 0.927 | 1.1 | 0.993 | 1.04 |
| PC-3 [JPC-3] | 0.578 | 0.511 | 0.53 | 0.567 | 0.478 | 0.751 | 0.701 | 0.632 | 0.762 | 0.576 | 0.959 | 0.913 | 0.956 | 1.02 | 0.897 | 0.812 | 0.739 | 0.743 | 0.809 | 0.734 |
| PC-14 | 0.56 | 0.468 | 0.474 | 0.356 | 0.138 | 0.864 | 0.534 | 0.788 | 0.498 | 0.243 | 1.04 | 0.919 | 0.908 | 0.91 | 0.633 | 1.08 | 0.961 | 0.991 | 1.07 | 0.928 |
| RERF-LC-KJ | 1.14 | 0.994 | 1.03 | 1.02 | 0.766 | 0.901 | 0.752 | 0.863 | 0.837 | 0.693 | 0.919 | 0.882 | 0.842 | 0.814 | 0.812 | 0.917 | 0.632 | 0.979 | 1.02 | 0.888 |
| SK-LU-1 | 0.384 | 0.361 | 0.329 | 0.404 | 0.318 | 0.553 | 0.403 | 0.372 | 0.515 | 0.408 | 1.33 | 0.993 | 1.09 | 1.05 | 0.597 | 1 | 1.09 | 0.852 | 0.54 | 0.0905 |
| SK-MES-1 | 0.342 | 0.318 | 0.314 | 0.285 | 0.266 | 0.541 | 0.532 | 0.518 | 0.471 | 0.307 | 1.06 | 1.05 | 1.02 | 0.902 | 0.705 | 1.25 | 1.23 | 1.15 | 1.07 | 0.692 |
| SW 1573 | 0.435 | 0.347 | 0.332 | 0.25 | 0.17 | 0.595 | 0.528 | 0.552 | 0.497 | 0.318 | 0.768 | 0.756 | 0.89 | 0.771 | 0.63 | 0.93 | 0.81 | 1.13 | 0.852 | 0.602 |
| UMC-11 | 0.331 | 0.347 | 0.327 | 0.309 | 0.272 | 0.701 | 0.682 | 0.688 | 0.774 | 0.352 | 1.06 | 0.924 | 0.972 | 1.06 | 0.693 | 0.287 | 0.295 | 0.311 | 0.336 | 0.129 |
